Data set [1] in a line: Study in patients suffering from Huntington's disease. To be noted: in vivo. How it is done: (§1) Patients with schizophrenia and free of antipsychotic medication are selected for the study. […] Each week, patients are evaluated for frequency and duration of schizophrenic episodes. Additionally, blood samples are taken each week and biomarkers of oxidative stress, such as the biomarkers described above, are measured.
A similar study can be performed with patients suffering from Huntington's disease.

A short description of data set [2]: Incorporation into animal tissues by isotope ratio mass-spectrometry. The note with it: 0.01-100 mg/kg diet; brain, liver, heart, lung. How it is done: Brain, liver, heart, and lung tissue are removed, and homogenate samples from control mice and test compound-treated mice are analyzed for deuterium content as described for Example 7 above.
Data set [3] is described as follows: Study in patients suffering from Bipolar Disorder. To be noted: in vivo. How it is done:
as §1
A similar study can be performed with patients suffering from Bipolar Disorder.

The nature of data set [4]: Study in patients with schizophrenia. The data set is classed as in vivo. The note with it: 0.01-100 mg/kg daily over six months. How it is done:
as §1

The test system of data set [5] is Q-less coq3 yeast strains. The note with it: 200 μM total ALA and D4-Lnn. How it is done:
FIG. 10. […] Serial dilutions (1:5) starting at 0.2 OD/ml were spotted on YPD solid plate medium. Growth at 30° C.
Serial dilutions (1:5) starting at 0.2 OD/ml were spotted on YPD solid plate medium. Growth was at 30° C.

In data set [6] the test system is coq null mutants (Q-less yeast). The class given is cell-based, S. cerevisiae. The note with it: for viability of cells by quantitative colony counting / viability of coq mutants after fatty acid treatment: 200 μM fatty acid; for viability of cells by quantitative colony counting: 1, 2, 4 h; for viability of coq mutants after fatty acid treatment: plate dilution assay. How it is done: FIG. 3. […] Yeast coq3, coq7 and coq9 null mutants were prepared in the W303 yeast genetic background (WT). Yeast strains were grown in YPD medium (1% Bacto-yeast extract, 2% Bacto-peptone, 2% dextrose) and harvested while in log phase growth (OD600 nm=0.1-1.0). Cells were washed twice with sterile water and resuspended in phosphate buffer (0.10 M sodium phosphate, pH 6.2, 0.2% dextrose) to an OD600 nm=0.2. Samples were removed and 1:5 serial dilutions starting at 0.20 OD/ml were plated on YPD plate medium, to provide a zero time untreated control (shown in top left panel). The designated fatty acids were added to 200 μM final concentration to 20 ml of yeast in phosphate buffer. At 2 h, 4 h, and 16 h samples were removed, 1:5 serial dilutions prepared, and spotted onto YPD plate medium. Pictures were taken after 2 days of growth at 30° C.
FIG. 4. […] The fatty acid sensitive assay was performed as described in FIG. 3, except that 100 μl aliquots were removed at 1, 2, and 4 h and, following dilution, spread onto YPD plates. Pictures were taken after 2 to 2.5 days, and the number of colonies counted. Yeast strains include Wild type (circles), atp2 (triangles), or coq3 (squares). Fatty acid treatments include oleic C18:1 (solid line), linolenic, C18:3, n-3 (dashed line) or 11,11,14,14-D4-linolenic, C18:3, n-3, (dotted line).
Q-less yeast (coq mutants) provide an ideal system to assess in vivo autoxidation of fatty acids. Coenzyme Q (ubiquinone or Q) serves as a small lipophilic antioxidant as well as an electron shuttle in the respiratory chain of the mitochondrial inner membrane.
A plate dilution assay can be used to assess PUFA sensitivity. This assay can be performed by spotting serial five-fold dilutions of aliquots onto YPD plate media (FIG. 3). The sensitivity of the different strains can be observed by visual inspection of the density of cells in each spot.

Data set [7] has as its system Q-less coq3 yeast strains. Nature of the data set: Yeast incubation with different ratios of LA to D2-LA, plate dilution. The data set is classed as cell-based. How it is done:
FIG. 9. […] Wild-type, yeast Q-less coq3, or respiratory deficient cor1 null mutants were incubated in the presence of 200 μM of LA and D2-LA at different ratios of PUFAs. Serial dilutions (1:5) starting at 0.2 OD/ml were spotted on YPD solid plate medium. A zero-time untreated control is shown on the top left. Growth at 30° C.
Wild-type, yeast Q-less coq3, or respiratory deficient cor1 null mutants were incubated in the presence of 200 μM of LA and D2-LA at different ratios of PUFAs, as indicated in FIG. 9. Serial dilutions (1:5) starting at 0.2 OD/ml were spotted on YPD solid plate medium. […] Growth was at 30° C.

Data set [8] deals with wild-type (strain W303-1B) cells. The note with it: four hour treatment; cited from earlier work.
The subject of data set [9] is coq null mutants (Q-less yeast). To be noted: cited from earlier work.
The nature of data set [10]: Kinetics of O2 consumption during AMVN-initiated oxidation (glass capillary microvolumeter). The class given is physicochemical. The note with it: for rate of oxidation, ROX: 0.71 M in chlorobenzene, 40 mM AMVN. How it is done: FIG. 7. Kinetics of O2 consumption accompanied the oxidation of 0.71 M LA (plots 1 and 2) and 0.71 M D2-LA (plot 3) in chlorobenzene initiated by 40 mM AMVN at 37° C. Plot 2-0.23 mM HPMC was added to 0.71 M LA.
The kinetics of oxygen consumption during the oxidation of LA and D2-LA was studied with a glass capillary microvolumeter (FIG. 7). The rate of oxidation, ROX, was measured as a slope of [O2] traces. The rate of initiation, RIN, was determined by the inhibitor method with HPMC (“6-hydroxy-2,2,5,7,8-pentamethylbenzochroman”) as a reference inhibitor. RIN was calculated from the induction period of inhibited oxidation, tIND: RIN=2·[HPMC]/tIND. […] See Carpenter, “Determination of Organic Reaction Mechanisms” (John Wiley & Sons, 1984), p. 89.

Details of data set [11]: species or system WT mice. The note with it: both, mouse, in vivo, 90 days. The source says: WT mice were housed at 12 animals (males separate from females) per cage and fed for 90 days ad libitum (typically, 5-6 g/day) on the AIN 93 diet, as pellets, with 6% total fat. […] The animals were sacrificed, organs harvested and stored at low temperature prior to analysis without the use of preservation agents.

The subject of data set [12] is Wild-type yeast cells. Nature of the data set: C11-Bodipy 581/591 lipid peroxidation in copper-stressed yeast. The class given is cell-based. The note with it: 200 μM fatty acid 2 hours, then 50 μM CuSO4 60 min. How it is done:
Wild-type yeast cells were treated as described above except yeast were treated with 200 μM of the designated fatty acid for 2 hours, washed with sterile water, and were either not treated (triangles) or treated with 50 μM CuSO4 (squares) at room temperature. After 60 min of copper treatment cells were treated with 8 μM C11-Bodipy 581/591 for 30 min at room temperature. Four 100 μl aliquots were plated in a 96-well plate and the fluorescence was measured.

Data set [13] is described as follows: Kinetics of oxidation of mixtures of D2-LA and LA. The class given is physicochemical. How it is done: FIG. 8. Dependence of the rate of oxidation of the mixture of LA and D2-LA in chlorobenzene solution on mixture composition. Conditions: [LA]+[11,11-d2-LA]=0.775 M; [AMVN]=0.0217 M; 37° C. RIN=(1.10±0.08)×10^−7 M/sec.
To simulate the likely in vivo conditions, the kinetics of the oxidation of the mixtures of D2-LA and LA were studied (FIG. 8). In the experiments, the concentration of LA plus 11,11-d2-LA was 0.775 M; the concentration of AMVN was 0.0217 M; and the reactions were carried out at 37° C. The results afforded an RIN of 1.10±0.08×10^−7 M/sec.

The subject of data set [14] is m-Fibroblasts (Frda^L3/L-; h-I54F). Nature of the data set: Friedreich's ataxia model: viability of FAC/BSO-treated fibroblasts (Promega Cell-Glow). The class given is cell-based. The note with it: for cell survival on co-administration with idebenone: compared with individual administration of idebenone, D-LA, or D-ALA. How it is done:
m-Fibroblasts (Frda^L3/L-; h-I54F) have both frataxin alleles deleted and over-express a mutated form of human frataxin (I154F) that is associated with the disease. […] Cells were plated in 48 well-plates and treated with FAC and BSO for 48 h and 24 h respectively. […] At the end of the experiment, cell viability was assessed by the Promega Cell-Glow kit and measured in Arbitrary Luminescence Units (ALU) also expressed as % survival (FIG. 22). In FIG. 22, NT stands for not treated; F stands for iron ammonium citrate; B stands for buthionine sulphoximine; CC stands for carrier control DMSO (dimethylsulfoxide) used to bring the final concentration in the assay to 0.5%; and IDB stands for idebenone.
Likewise, an investigation was undertaken to measure the effects of co-administering idebenone with D-PUFAs (FIG. 23).
Additional experiments were also performed to study the effects of co-administering different D-PUFAs (data not shown). I154F cells were treated with either 100% D-LA, 75% D-LA/25% D-ALA, 50% D-LA/50% D-ALA, and 100% D-ALA.

Entries after “also recorded” stand apart in the source; their conditions may differ. Where two headings read alike, the source gives them in different places.

Take “11,11,14,14-Tetradeutero-cis,cis,cis-octadeca-8,12,15-trienoic acid [D4-ALA]”: the “levels of biomarkers associated with oxidative stress” value in [1] is “reduce neuronal cell death and the levels of biomarkers associated with oxidative stress”; in data set [3] it was “reduce the levels of biomarkers associated with oxidative stress”; in data set [4], “reduce the levels of biomarkers associated with oxidative stress”. Moreover, the “presence in tissues and cells (deuterium content)” value in data set [2] was “expected to be found in the tissues and cells analyzed”. The “minimal amount sufficient to cancel the toxicity of ALA” value in data set [5] is listed as 15-20%. For the same compound, in [6], the “viability of cells by quantitative colony counting” value is reported as “similar”. The “viability of coq mutants after fatty acid treatment” value (“viability of coq mutants” for short) in [6] (listed as D4-linolenic acid) is “resistant to PUFA-mediated cell killing; also recorded: not killed”.
In the case of `[2H]C(/C=C\CCCCC)/C=C\CCCCCCCC(=O)O` (centres unmarked) [11,11-D,H-LA, [11-^2H]-linoleic acid], the cell viability entry in data set [7] (after 3 hours of treatment, data not shown) is “no detectable loss in cell viability”.
As for `[2H]C([2H])(/C=C\C/C=C\CC)C/C=C\CCCCCCC(=O)O` [11, 11-D2-linolenic acid, 11,11-Dideutero-cis,cis,cis-octadeca-8,12,15-trienoic acid], the “viability of coq mutants” value in [6] is recorded as “comparable protection”.
As to `[2H]C([2H])(/C=C\CC)/C=C\CC/C=C\CCCCCCC(=O)O` [14, 14-D2-linolenic acid, 14,14-Dideutero-cis,cis,cis-octadeca-8,12,15-trienoic acid], the “viability of coq mutants” value in data set [6] is “comparable protection”.
On to `CC/C=C\C/C=C\C/C=C\CCCCCCCC(=O)O` [ALA, cis,cis,cis-9,12,15-Octadecatrienoic acid, reference compound], for which the “wild-type cells remaining viable” value in data set [8] is listed as 70%. In addition, the “viability of coq mutants” value in data set [6] is given as “dramatic loss of viability”. Also, the “reduction of viability of the coq mutants” value in data set [6] (treatment for 4 h, colony counting) is recorded as “more than 100 fold”. In addition, the “viable Q-less (coq2, coq3, and coq5) yeast mutants” value in [9] (four hour treatment) was “Less than 1%”.
In the case of `[2H]C([2H])(/C=C\CCCCC)/C=C\CCCCCCCC(=O)O` [D2-LA, 11,11-Dideutero-cis,cis-octadeca-9,12-dienoic acid], the “levels of biomarkers associated with oxidative stress” value was “reduce neuronal cell death and the levels of biomarkers associated with oxidative stress” in data set [1]; “reduce the levels of biomarkers associated with oxidative stress” in [3]; “reduce the levels of biomarkers associated with oxidative stress” in [4]. The “effect of addition of HPMC on oxidation” value in [10] was “did not result in the decrease in ROX and the appearance of any detectable induction period”. Also, the “length of the kinetic chain, ν=ROX/RIN” value in data set [10] was “≈ 1.1”. In addition, the “rate of oxidation, ROX” value in data set [10] (37° C.) turned out to be 1.8e-07 M/s. Also, in data set [10] (chlorobenzene, 37° C.), the “kinetic isotope effect (KIE) from ROX for LA and D2-LA” value is listed as “≈ 35”. Moreover, in data set [11], the “total fat being deuterated, liver” value was “about 32%”. In data set [12], the “levels of lipid peroxidation” value was “lower levels of lipid peroxidation similar to yeast not treated with PUFA”. Besides, the “minimal amount sufficient to cancel the toxicity of LA” value in data set [7] (200 μM total LA and D2-LA) is listed as 10-15%. Also, in [13] (mixture with LA), the “protection of non-deuterated LA against autoxidation” value is on record as “‘protects’ the non-deuterated LA against autoxidation”. Further, the protection against autoxidation entry in data set [13] (mixture with non-deuterated methyl linoleate, data not shown) is “qualititatively similar effect”.
`[2H]C([2H])(/C=C\CCCCC)/C=C\CCCCCCCC(=O)O` [D-LA]: in [14] (FAC 48 h, BSO 24 h, PUFA added 2 hours after BSO), the “cell viability (ALU, % survival)” value is “dose-dependent rescue of viability”. Besides, the “cell survival on co-administration with idebenone” value in data set [14] was “increased cell survival”.
As for `CCCCC/C=C\C/C=C\CCCCCCCC(=O)O` [LA, cis,cis-9,12-Octadecadienoic acid, reference compound], the “length of the kinetic chain, ν=ROX/RIN” value in data set [10] is 38±3. In addition, the “rate of oxidation, ROX” value in [10] (37° C.) amounted to 6.1e-06 M/s. The oxidizability in data set [10] (n=5) is 0.0215±0.008 M^−0.5s^−0.5.
In the case of `CCCCC/C=C\C/C=C\C/C=C\C/C=C\CCCC(=O)O` [arachidonic acid], in [9], the “sensitivity of Q-less yeast to the fatty acid” value was “hypersensitive”.
On to `CCCCCCCC/C=C\CCCCCCCC(=O)O` [oleic acid, reference compound], for which the “viability of cells by quantitative colony counting” value in data set [6] is “similar”. The “sensitivity of Q-less yeast to the fatty acid” value in data set [9] was “behave the same as the wild-type parental strain”.
Turning to D-ALA, the “cell survival on co-administration with idebenone” value in [14] was “increased cell survival”.

These data come from US10058612B2, “Impaired energy processing disorders and mitochondrial deficiency” (priority 2011, dated 2018).
